One may read the melting point as the temperature, or range, at which the solid turns liquid. As for `Cc1noc(C)c1CN1C(=O)C2(COc3cc4c(cc32)OCO4)c2ccccc21` (centres unmarked) [Example 10.51, 1′-[(3,5-dimethylisoxazol-4-yl)methyl]spiro[furo[2,3-f][1,3]benzodioxole-7,3′-indol]-2′(1′H)-one], the melting point was 165 to 167 °C.

For the compound `O=C1N(Cc2ccco2)c2ccccc2C12COc1cc3c(cc12)OCO3` (centres unmarked) [Example 10.52, 1′-(2-furylmethyl)spiro[furo[2,3-f][1,3]benzodioxole-7,3′-indol]-2′(1′H)-one], the melting point lay within 110 to 112 °C.

In turn, `O=C1N(Cc2ccc(-c3cccc(Cl)c3)o2)c2ccccc2C12COc1cc3c(cc12)OCO3` (centres unmarked) [Example 10.56, 1′-{[5-(3-chlorophenyl)-2-furyl]methyl}spiro[furo[2,3-f][1,3]benzodioxole-7,3′-indol]-2′(1′H)-one] displayed a melting point of 205 to 207 °C.

`O=C1N(CCCCl)c2ccccc2C12COc1cc3c(cc12)OCO3` (centres unmarked) [Example 10.57, 1′-(3-chloropropyl)spiro[furo[2,3-f][1,3]benzodioxole-7,3′-indol]-2′(1′H)-one] yielded a melting point of 144 to 146 °C.

`CC(C)c1nc(CN2C(=O)C3(COc4cc5c(cc43)OCO5)c3ccccc32)co1` (centres unmarked) [Example 10.58, 1′-[(2-isopropyl-1,3-oxazol-4-yl)methyl]spiro[furo[2,3-f][1,3]benzodioxole-7,3′-indol]-2′(1′H)-one] returned a melting point of 118 to 120 °C.

`O=C1N(Cc2ccc(Cl)s2)c2ccc(F)cc2C12COc1cc3c(cc12)OCO3` (centres unmarked) [Example 10.61, 1′-[(5-chloro-2-thienyl)methyl]-5′-fluorospiro[furo[2,3-f][1,3]benzodioxole-7,3′-indol]-2′(1′H)-one] registered a melting point of 142 to 144 °C.

On to `O=C1N(Cc2ccc(Cl)o2)c2ccccc2C12COc1cc3c(cc12)OCO3` (centres unmarked) [Example 10.62, 1′-[(5-chloro-2-furyl)methyl]spiro[furo[2,3-f][1,3]benzodioxole-7,3′-indol]-2′(1′H)-one], for which the melting point was 148 to 150 °C.

As for `CN1C(C)(C)CC(O)(CN2C(=O)C3(COc4cc5c(cc43)OCO5)c3ccccc32)CC1(C)C` (centres unmarked) [Example 10.63, 1′-[(4-hydroxy-1,2,2,6,6-pentamethylpiperidin-4-yl)methyl]spiro[furo[2,3-f][1,3]benzodioxole-7,3′-indol]-2′(1′H)-one], the melting point was 210 to 214 °C.

For the compound `O=C1N(Cc2ccc(-c3ccccc3Cl)o2)c2ccccc2C12COc1cc3c(cc12)OCO3` (centres unmarked) [Example 10.64, 1′-{[5-(2-chlorophenyl)-2-furyl]methyl}spiro[furo[2,3-f][1,3]benzodioxole-7,3′-indol]-2′(1′H)-one], the melting point was 148 to 150 °C.

For the compound `Cc1ccc(CN2C(=O)C3(COc4cc5c(cc43)OCO5)c3ccccc32)o1` (centres unmarked) [Example 10.65, 1′-[(5-methyl-2-furyl)methyl]spiro[furo[2,3-f][1,3]benzodioxole-7,3′-indol]-2′(1′H)-one], the melting point is 117 to 119 °C.

Compound `O=C1N(Cc2ccc(Cl)s2)c2ccccc2C12COc1cc3c(cc12)OCO3` (centres unmarked) [Example 10.67, 1′-[(5-chloro-2-thienyl)methyl]spiro[furo[2,3-f][1,3]benzodioxole-7,3′-indol]-2′(1′H)-one] yielded a melting point of 145 to 146 °C.

For the compound `O=C1N(Cc2sc(C(F)(F)F)cc2O)c2ccccc2C12COc1cc3c(cc12)OCO3` (centres unmarked) [Example 10.68, 1′-{[3-hydroxy-5-(trifluoromethyl)-2-thienyl]methyl}spiro[furo[2,3-f][1,3]benzodioxole-7,3′-indol]-2′(1′H)-one], the melting point lay within 225 to 227 °C.

Compound `O=C1N(Cc2cnc(Cl)s2)c2ccccc2C12COc1cc3c(cc12)OCO3` (centres unmarked) [Example 10.70, 1′[(2-chloro-1,3-thiazol-5-yl)methyl]spiro[furo[2,3-f][1,3]benzodioxole-7,3′-indol]-2′(1′H)one] yielded a melting point of 195 to 198 °C.

For the compound `O=C1N(Cc2ccc(C(F)(F)F)o2)c2ccccc2C12COc1cc3c(cc12)OCC3` (centres unmarked) [Example 10.71, 1′-{[5-(trifluoromethyl)-2-furyl]methyl}-6,7-dihydrospiro[benzo[1,2-b:4,5-b′]difuran-3,3′-indol]-2′(1′H)-one], the melting point lay within 174 to 177 °C.

For `O=C1N(Cc2ccc(C(F)(F)F)s2)c2ccccc2C12COc1cc3c(cc12)OCO3` (centres unmarked) [Example 10.73, 1′-{[5-(trifluoromethyl)-2-thienyl]methyl}spiro[furo[2,3-f][1,3]benzodioxole-7,3′-indol]-2′(1′H)-one], the melting point fell in the range of 127 to 130 °C.

Regarding `COc1cc(C(F)(F)F)sc1CN1C(=O)C2(COc3cc4c(cc32)OCO4)c2ccccc21` (centres unmarked) [Example 10.74, 1′-{[3-methoxy-5-(trifluoromethyl)-2-thienyl]methyl}spiro[furo[2,3-f][1,3]benzodioxole-7,3′-indol]-2′(1′H)-one], the melting point lay within 178 to 180 °C.

`Cc1cccc2c1C1(COc3cc4c(cc31)OCO4)C(=O)N2Cc1ccc(C(F)(F)F)o1` (centres unmarked) [Example 10.75, 4′-methyl-1′-{[5-(trifluoromethyl)-2-furyl]methyl}spiro[furo[2,3-f][1,3]benzodioxole-7,3′-indol]-2′(1′H)-one] came in with a melting point of 117 to 119 °C.

`Cc1ccc2c(c1)C1(COc3cc4c(cc31)OCO4)C(=O)N2Cc1ccc(C(F)(F)F)o1` (centres unmarked) [Example 10.76, 5′-methyl-1′-{[5-(trifluoromethyl)-2-furyl]methyl}spiro[furo[2,3-f][1,3]benzodioxole-7,3′-indol]-2′(1′H)-one] displayed a melting point of 96 to 98 °C.

The compound `N#Cc1ccc(CN2C(=O)C3(COc4cc5c(cc43)OCO5)c3ccccc32)o1` (centres unmarked) [Example 10.80, 5-[(2′-oxospiro[furo[2,3-f][1,3]benzodioxole-7,3′-indol]-1′(2′H)-yl)methyl]-2-furonitrile] registered a melting point of 167 to 169 °C.

Compound `CS(=O)(=O)c1ccc(CN2C(=O)C3(COc4cc5c(cc43)OCO5)c3ccccc32)o1` (centres unmarked) [Example 10.81, 1′-{[5-(methylsulfonyl)-2-furyl]methyl}spiro[furo[2,3-f][1,3]benzodioxole-7,3′-indol]-2′(1′H)-one] showed a melting point of 177 to 179 °C.

For the compound `O=C1N(Cc2ccc(=O)[nH]c2)c2ccccc2C12COc1cc3c(cc12)OCO3` (centres unmarked) [Example 10.82, 1′-[(6-oxo-1,6-dihydropyridin-3-yl)methyl]spiro[furo[2,3-f][1,3]benzodioxole-7,3′-indol]-2′(1′H)-one], the melting point was 247 to 250 °C.

In the case of `Cn1cc(CN2C(=O)C3(COc4cc5c(cc43)OCO5)c3ccccc32)ccc1=O` (centres unmarked) [Example 10.83, 1′-[(1-methyl-6-oxo-1,6-dihydropyridin-3-yl)methyl]spiro[furo[2,3-f][1,3]benzodioxole-7,3′-indol]-2′(1′H)-one], the melting point fell in the range of 115 to 118 °C.

On to `O=C1N(Cc2nnc(Cl)s2)c2ccccc2C12COc1cc3c(cc12)OCO3` (centres unmarked) [Example 10.85, 1′-[(5-chloro-1,3,4-thiadiazol-2-yl)methyl]spiro[furo[2,3-f][1,3]benzodioxole-7,3′-indol]-2′(1′H)-one], for which the melting point was 194 to 197 °C.

In turn, `O=C1N(CC2CCN(c3ccccn3)CC2)c2ccccc2C12COc1cc3c(cc12)OCO3` (centres unmarked) [Example 10.86, 1′-[(1-pyridin-2-ylpiperidin-4-yl)methyl]spiro[furo[2,3-f][1,3]benzodioxole-7,3′-indol]-2′(1′H)-one] yielded a melting point of 95 to 97 °C.

The compound `O=C1N(Cc2ccc(C(F)(F)F)o2)c2ccccc2C12COc1cc(OC(F)(F)F)ccc12` (centres unmarked) [Example 10.90, 6-(trifluoromethoxy)-1′-{[5-(trifluoromethyl)-2-furyl]methyl}spiro[1-benzofuran-3,3′-indol]-2′(1′H)-one] came in with a melting point of 78 to 80 °C.

Compound `COc1ccc(CN2C(=O)C3(COc4cc(OC(F)(F)F)ccc43)c3ccccc32)cc1` (centres unmarked) [Example 10.91, 1′-(4-methoxybenzyl)-6-(trifluoromethoxy)spiro[1-benzofuran-3,3′-indol]-2′(1′H)-one] yielded a melting point of 82 to 84 °C.

Consider `O=C1N(CC2CCCCC2)c2ccccc2C12COc1cc3c(cc12)OCO3` (centres unmarked) [Example 10.92, 1′-(cyclohexylmethyl)spiro[furo[2,3-f][1,3]benzodioxole-7,3′-indol]-2′(1′H)-one], for which the melting point fell in the range of 153 to 154 °C.

`CS(=O)(=O)N1C(=O)C2(COc3cc4c(cc32)OCO4)c2ccccc21` (centres unmarked) [Example 10.93, 1′-(methylsulfonyl)spiro[furo[2,3-f][1,3]benzodioxole-7,3′-indol]-2′(1′H)-one] gave a melting point of 215 to 217 °C.

On to `CC(C)(C)OC(=O)N1CCC(CCN2C(=O)C3(COc4cc5c(cc43)OCO5)c3ccccc32)CC1` (centres unmarked) [Example 10.96, tert-butyl 4-[2-(2′-oxospiro[furo[2,3-f][1,3]benzodioxole-7,3′-indol]-1′(2′H)-yl)ethyl]piperidine-1-carboxylate], for which the melting point is 173 to 175 °C.

In turn, `CCCCCN1C(=O)C2(COc3cc4c(cc32)OCO4)c2c(C(=O)Nc3cccc(OC)c3)cccc21` (centres unmarked) [Example 29.1, N-(3-methoxyphenyl)-2′-oxo-1′-pentyl-1′,2′-dihydrospiro[furo[2,3-f][1,3]benzodioxole-7,3′-indole]-4′-carboxamide] yielded a melting point of 173 to 175 °C.

For `O=C1N(Cc2nc3cc(F)ccc3[nH]2)c2ccccc2C12COc1cc3c(cc12)OCO3` (centres unmarked) [Example 53, 1′-[(5-fluoro-1H-benzimidazol-2-yl)methyl]spiro[furo[2,3-f][1,3]benzodioxole-7,3′-indol]-2′(1′H)-one], the melting point lay in the range of 138 to 142 °C.

`COc1ccc2c(c1)C1(CO2)C(=O)N(C)c2ccccc21` (centres unmarked) [Example 58, 5-methoxy-1′-methylspiro[1-benzofuran-3,3′-indol]-2′(1′H)one] had a melting point of 159 to 161 °C.

For the origin of these results see patent US8466188B2, “Use of spiro-oxindole compounds as therapeutic agents” (Xenon Pharmaceuticals Inc., priority 2006, dated 2013).
